Results taken from US20200155566A1, “THERAPEUTIC COMBINATION OF A THIRD GENERATION EGFR TYROSINE KINASE INHIBITOR AND A CYCLIN D KINASE INHIBITOR” (Novartis AG, priority 2017, published 2020).

Assays:
phospho-Rb (Rb S807/811) = experiment: Western blot of phospho-Rb after 72 hours of treatment; type: cell-based; details: PC-14, NCI-H1975, HCC827, HCC4006, immunoblot
Protocol: Several EGFR mutant NSCLC cell lines were treated for 72 hours with the EGF816 and LEE011 combination at different concentrations as follows. NCI-H1975 (having mutations L858R, T790M), PC-14 (having mutations ex 19 del or exon 19 deletion), HCC827 (having mutation exl9del) and HCC4006 (having mutation exl9del) cells were cultured in RPMI-1640 growth medium (ATCC, catalog number 20-2001), supplemented with 10% fetal bovine serum (GIBCO, catalog number F4135) at 37° C. in a humidified 5% CO2 incubator. For the mechanistic studies, cells were seeded into tissue culture treated 6-well plates (Corning 3506) at a densities of 400k, 400k, 100K and 50k cells per well for HCC827, NCI-H1975, HCC4006 and PC-9 (having mutation exon 19 deletion) respectively, and allowed to attach overnight. The cells were then exposed to a 3×3 matrix combination treatment of EGF816 and LEE011, at concentrations of 0, 0.12, 0.333 μM EGF816 vs. 0, 0.312, 2.5 μM LEE011. […]
Lysate' total protein content was determined by BCA assay (Pierce 23227), following the manufacturer's instructions, and samples were prepared for a western blot using Invitrogen LDS Sample Buffer (NP0007)) containing 200 mM DTT, boiled at 95° C. for 10 minutes, micro-centrifuged and 20 μg total protein loaded per well. […]

[1] = single agent ribociclib, 3 weeks on/1 week off; cited from earlier work
[2] = system: NCI-H1975 tumors (EGFR L858R, T790M); experiment: In vivo efficacy study, NCI-H1975 xenograft tumor volume; design: species or system mouse; details: Compound A 10 or 30 mg/kg p.o. qd, Compound B 80 mg/kg free base p.o. qd
Protocol: The tumor cells were cultured in tissue culture flasks in a humidified incubator at 37° C., in an atmosphere of 5% CO2 and 95% air.

CYP3A4/5 = details: cited from earlier work
EGFR-mutant NSCLC = details: 100 mg daily versus 150 mg daily, previous study; cited from earlier work
[3] = system: advanced non-small cell lung cancer (NSCLC) harboring T790M; details: patients with advanced NSCLC harboring T790M; cited from earlier work
[4] = system: EGFR mutant (L858R, exl9del and T790M) cancer models; details: cited from earlier work
[5] = system: phospho-EGFR (EGFR Y1068); experiment: Western blot of phospho-EGFR after 72 hours of treatment; type: cell-based; details: PC-14, NCI-H1975, HCC827, HCC4006, immunoblot
Protocol: NCI-H1975 (having mutations L858R, T790M), PC-14 (having mutations ex 19 del or exon 19 deletion), HCC827 (having mutation exl9del) and HCC4006 (having mutation exl9del) cells were cultured in RPMI-1640 growth medium (ATCC, catalog number 20-2001), supplemented with 10% fetal bovine serum (GIBCO, catalog number F4135) at 37° C. in a humidified 5% CO2 incubator. For the mechanistic studies, cells were seeded into tissue culture treated 6-well plates (Corning 3506) at a densities of 400k, 400k, 100K and 50k cells per well for HCC827, NCI-H1975, HCC4006 and PC-9 (having mutation exon 19 deletion) respectively, and allowed to attach overnight. […] After 72 hours of treatment, cells were lysed in 100 μl per well RIPA buffer (Sigma R0278) containing protease inhibitor cocktail (Sigma P8340), phosphatase inhibitor cocktail 2(Sigma P5726) and phosphatase inhibitor cocktail 3 (Sigma P0044). Cells were lysed on ice for 10 minutes, with scraping using a Cell Lifter (Corning 3008). Lysates were then micro-centrifuged at 14000rpm in an Eppendorf 5417R micro-centrifuge at 4° C.

[6] = system: Epidermal Growth Factor Receptor (EGFR); details: L858R, exl9del, T790M versus WT; cited from earlier work
[7] = system: EGFR mutant NSCLC cell lines (PC9, HCC827, HCC4006, MGH707); experiment: Long-term viability study (confluence by incucyte zoom, four weeks); type: cell-based
Protocol: PC9 (3,000/well), HCC827 (10,000/well), HCC4006 (5000/well), and MGH707 (5000/well) cells were plated into 96-well plates and the following day treated with EGF816 (300nM) either alone or in combination with LEE011 (1000 nM) for four weeks. Drug was refreshed twice per week. Cell confluence was used as a surrogate for cell number and was measured by an incucyte zoom (Essen Biosciences) at the initiation of treatment and then twice (2x) per week thereafter.

SMILES	Rb phosphorylation (Rb S807/811) (phospho-Rb (Rb S807/811))	MTD [1] [mg qd]	tumor volume changes over time [2]	CYP3A4/5 inhibition (CYP3A4/5)	rates of rash and diarrhoea (EGFR-mutant NSCLC)	antitumor activity in patients [3]	tolerability, body weight ([4]; efficacious doses, xenograft models)	anti-tumor efficacy in xenograft models ([4]; several xenograft models)	EGFR phosphorylation (EGFR Y1068) [5]	selectivity for mutant EGFR over wild type EGFR [6]	regrowth of cells (confluence as surrogate for cell number) ([7]; EGF816 300nM alone or with LEE011 1000 nM)	apoptosis and cell cycle arrest ([7]; EGF816 300nM, PC9, HCC827, HCC4006, MGH707)
CN(C)C(=O)c1cc2cnc(Nc3ccc(N4CCNCC4)cn3)nc2n1C1CCCC1 [LEE011, 7-cyclopentyl-2-(5-piperazin-1-yl-pyridin-2-ylamino)-7H-pyrrolo[2,3-d]pyrimidine-6-carboxylic acid dimethylamide]	inhibited by LEE011 single agent in 3 out of 4 cell lines	900	no single agent activity	inhibitor of CYP3A4/5								
Cc1cc(C(=O)Nc2nc3cccc(Cl)c3n2[C@@H]2CCCCN(C(=O)/C=C/CN(C)C)C2)ccn1 [EGF816, (R,E)-N-(7-chloro-1-(1-(4-(dimethylamino)but-2-enoyl)azepan-3-yl)-1H-benzo[d]imidazol-2-yl)-2-methylisonicotinamide]			significant tumor regressions, which increased at higher doses		lower rates of rash and diarrhoea were observed at 100 mg daily	durable antitumor activity	well tolerated with no body weight loss observed at efficacious doses	Dose-dependent anti-tumor efficacy	inhibited in a dose dependent manner across all cell lines	selectively inhibits activating and acquired resistance mutants (L858R, exl9del and T790M), while sparing wild type (WT) EGFR	begin to slowly regrow	varying degrees of apoptosis and cell cycle arrest
